Tested on: Streptozotocin-injected male Wistar rats
Assay: Glycemia over 24 days in streptozotocin (60 mg/kg) rats given betaine in drinking water (Example 4)
Assay type: in vivo, rat
Details: 200 mg/kg/day in drinking water, STZ 60 mg/kg rats, FIG. 4
Experimental: Male Wistar rats (+250 g) after 1 week stabulation are injected Streptozotocin 60 mg/kg intraperitoneally. Animals (n=8/group) were fed with normal chow and water ad libitum during 5 days, then at day 1 (T0) Betaine (200 mg/kg/day) or placebo were dissolved and administrated daily in drinking water during 24 days; full access to normal chow was maintained during the whole experiments. Glycemia was measured morning at days of experiments, in non-fastened rats (as in previous exp.). At T0+7 days the treatments were inverted between the 2 groups.

C[N+](C)(C)CC(=O)O [glycine betaine]
effect on the regulation of blood glucose: per se possesses an effect on the regulation of blood glucose
